In test [1] the target is Tyrosine-protein kinase JAK2 (Homo sapiens, UniProt O60674). The experiment in a line: (§1) JAK Caliper Enzyme Assay at 1 mM ATP: Test article was solubilized in dimethyl sulfoxide (DMSO) to a stock concentration of 30 mM. An 11-point half log dilution series was created in DMSO with a top concentration of 600 μM. […] The compound plates were diluted 1 to 60 resulting in a top final assay compound concentration of 10 μM and a 2% DMSO concentration.Test article and assay controls were added to a 384-well plate. Reaction mixtures contained 20 mM HEPES, pH 7.4, 10 mM magnesium chloride, 0.01% bovine serum albumin (BSA), 0.0005% Tween 20, 1 mM ATP and 1 μM peptide substrate. […] Enzyme concentrations and incubation times were optimized for each new enzyme preps and were modified slightly over time to ensure 20%-30% phosphorylation. The assays were stopped with a final concentration of 10 mM EDTA, 0.1% Coating Reagent and 100 mM HEPES, pH=7.4. The assay plates were placed on a Caliper Life Science Lab Chip 3000 (LC3000) instrument, and each well was sampled using appropriate separation conditions to measure the unphosphorylated and phosphorylated peptide.

Test [2] concerns the target T1, Tyrosine-protein kinase JAK3 (Homo sapiens, UniProt P52333).
T1 sequence (P52333 whole entry): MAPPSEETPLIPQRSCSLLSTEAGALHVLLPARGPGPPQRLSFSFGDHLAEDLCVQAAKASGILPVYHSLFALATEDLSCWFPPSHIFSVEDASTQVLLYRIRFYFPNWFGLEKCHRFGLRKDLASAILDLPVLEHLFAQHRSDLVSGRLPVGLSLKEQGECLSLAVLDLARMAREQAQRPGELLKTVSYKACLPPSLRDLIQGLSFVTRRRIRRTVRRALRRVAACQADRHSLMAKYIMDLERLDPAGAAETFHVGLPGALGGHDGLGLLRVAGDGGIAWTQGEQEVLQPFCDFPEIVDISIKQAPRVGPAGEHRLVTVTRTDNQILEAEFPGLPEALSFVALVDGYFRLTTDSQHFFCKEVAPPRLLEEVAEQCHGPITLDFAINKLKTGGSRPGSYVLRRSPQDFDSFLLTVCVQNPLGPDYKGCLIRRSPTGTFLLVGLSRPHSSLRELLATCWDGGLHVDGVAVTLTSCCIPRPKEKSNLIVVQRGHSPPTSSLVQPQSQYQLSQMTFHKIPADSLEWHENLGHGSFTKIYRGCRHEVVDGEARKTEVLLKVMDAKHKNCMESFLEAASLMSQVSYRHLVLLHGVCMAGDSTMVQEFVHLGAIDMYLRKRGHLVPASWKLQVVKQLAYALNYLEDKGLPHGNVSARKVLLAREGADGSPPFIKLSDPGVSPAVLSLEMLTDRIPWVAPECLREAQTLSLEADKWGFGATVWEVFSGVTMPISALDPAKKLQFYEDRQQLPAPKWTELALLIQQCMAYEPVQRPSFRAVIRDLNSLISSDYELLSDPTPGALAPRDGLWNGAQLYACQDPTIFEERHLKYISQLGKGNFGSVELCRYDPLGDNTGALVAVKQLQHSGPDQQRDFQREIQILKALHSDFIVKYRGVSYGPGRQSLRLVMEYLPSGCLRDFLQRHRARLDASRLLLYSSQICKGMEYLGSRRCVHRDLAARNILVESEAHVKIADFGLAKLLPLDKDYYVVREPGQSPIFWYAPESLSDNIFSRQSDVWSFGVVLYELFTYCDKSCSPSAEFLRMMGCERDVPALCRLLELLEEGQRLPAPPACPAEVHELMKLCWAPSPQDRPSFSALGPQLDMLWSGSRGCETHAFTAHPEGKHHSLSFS
The test is described as §1, with “substrate. The JAK1 and TYK2 assays contained 1 μM of the IRStide peptide (5FAM-[…]) and the JAK2 and JAK3 assays contained 1 μM of the JAKtide peptide (FITC-[…]).” for “substrate.”.

For test [3], the target named is Tyrosine-protein kinase JAK1 (Homo sapiens, UniProt P23458). The test is described as above.
The target in test [4] is Non-receptor tyrosine-protein kinase TYK2 (Homo sapiens, UniProt P29597). The test is described as above.

The structures appear in SMILES notation.

Tyrosine-protein kinase JAK1, sequence (P23458 whole entry): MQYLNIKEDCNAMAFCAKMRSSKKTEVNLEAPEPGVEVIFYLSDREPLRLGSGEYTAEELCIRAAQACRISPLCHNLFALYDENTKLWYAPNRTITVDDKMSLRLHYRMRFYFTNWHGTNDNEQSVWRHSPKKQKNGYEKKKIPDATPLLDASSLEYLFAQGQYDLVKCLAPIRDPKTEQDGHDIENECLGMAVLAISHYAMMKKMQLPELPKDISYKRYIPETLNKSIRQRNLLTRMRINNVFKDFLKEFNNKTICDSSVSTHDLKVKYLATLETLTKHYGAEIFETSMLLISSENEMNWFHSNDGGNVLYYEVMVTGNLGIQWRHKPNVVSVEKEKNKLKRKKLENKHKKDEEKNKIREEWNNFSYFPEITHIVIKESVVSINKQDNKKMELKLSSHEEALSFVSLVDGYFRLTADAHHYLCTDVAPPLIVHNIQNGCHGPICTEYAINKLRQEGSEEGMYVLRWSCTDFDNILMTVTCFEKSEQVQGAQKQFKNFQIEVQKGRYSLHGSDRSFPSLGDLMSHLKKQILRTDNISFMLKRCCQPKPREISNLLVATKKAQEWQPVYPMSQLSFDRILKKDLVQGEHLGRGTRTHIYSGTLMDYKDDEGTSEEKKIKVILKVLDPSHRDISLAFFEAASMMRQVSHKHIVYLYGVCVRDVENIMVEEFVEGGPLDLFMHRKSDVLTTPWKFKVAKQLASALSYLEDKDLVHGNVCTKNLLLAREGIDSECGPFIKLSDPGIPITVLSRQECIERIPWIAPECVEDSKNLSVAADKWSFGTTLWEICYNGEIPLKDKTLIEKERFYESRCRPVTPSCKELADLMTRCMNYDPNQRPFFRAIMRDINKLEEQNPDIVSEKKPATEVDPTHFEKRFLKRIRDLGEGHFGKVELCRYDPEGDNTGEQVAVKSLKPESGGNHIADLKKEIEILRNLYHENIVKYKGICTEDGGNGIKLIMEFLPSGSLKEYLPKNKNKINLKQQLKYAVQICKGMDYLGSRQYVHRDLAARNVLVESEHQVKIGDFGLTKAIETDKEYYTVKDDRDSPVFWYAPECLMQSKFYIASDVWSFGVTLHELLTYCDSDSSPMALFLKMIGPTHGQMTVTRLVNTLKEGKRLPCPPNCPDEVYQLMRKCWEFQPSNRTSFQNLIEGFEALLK
Tyrosine-protein kinase JAK2, sequence (O60674 whole entry): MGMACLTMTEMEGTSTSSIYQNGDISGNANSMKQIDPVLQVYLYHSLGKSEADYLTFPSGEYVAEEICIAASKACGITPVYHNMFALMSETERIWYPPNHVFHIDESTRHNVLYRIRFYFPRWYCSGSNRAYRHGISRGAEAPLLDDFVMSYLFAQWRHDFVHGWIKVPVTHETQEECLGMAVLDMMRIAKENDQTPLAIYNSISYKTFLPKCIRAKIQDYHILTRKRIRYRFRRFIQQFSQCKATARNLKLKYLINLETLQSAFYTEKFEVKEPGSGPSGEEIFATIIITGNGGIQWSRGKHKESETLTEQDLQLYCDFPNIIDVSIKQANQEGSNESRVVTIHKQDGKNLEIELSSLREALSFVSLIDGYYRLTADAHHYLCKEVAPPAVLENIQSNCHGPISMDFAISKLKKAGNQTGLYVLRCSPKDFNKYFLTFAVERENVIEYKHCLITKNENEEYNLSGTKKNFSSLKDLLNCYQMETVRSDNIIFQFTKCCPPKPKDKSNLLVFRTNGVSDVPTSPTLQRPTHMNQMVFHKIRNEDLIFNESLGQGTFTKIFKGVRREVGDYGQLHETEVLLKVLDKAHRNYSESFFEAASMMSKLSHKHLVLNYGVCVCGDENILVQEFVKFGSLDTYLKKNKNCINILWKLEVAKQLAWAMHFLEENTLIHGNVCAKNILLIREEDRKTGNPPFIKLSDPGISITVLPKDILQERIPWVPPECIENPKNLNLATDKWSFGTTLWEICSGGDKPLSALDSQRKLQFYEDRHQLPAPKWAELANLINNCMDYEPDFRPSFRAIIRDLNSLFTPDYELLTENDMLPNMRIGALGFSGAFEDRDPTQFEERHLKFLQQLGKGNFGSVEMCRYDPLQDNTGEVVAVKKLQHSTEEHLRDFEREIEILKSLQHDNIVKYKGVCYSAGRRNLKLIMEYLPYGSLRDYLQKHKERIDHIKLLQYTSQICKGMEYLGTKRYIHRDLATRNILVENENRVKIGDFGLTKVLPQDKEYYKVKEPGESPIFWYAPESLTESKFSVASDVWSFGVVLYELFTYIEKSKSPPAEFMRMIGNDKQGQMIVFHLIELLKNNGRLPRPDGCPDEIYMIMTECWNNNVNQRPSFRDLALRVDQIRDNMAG
Non-receptor tyrosine-protein kinase TYK2, sequence (P29597 whole entry): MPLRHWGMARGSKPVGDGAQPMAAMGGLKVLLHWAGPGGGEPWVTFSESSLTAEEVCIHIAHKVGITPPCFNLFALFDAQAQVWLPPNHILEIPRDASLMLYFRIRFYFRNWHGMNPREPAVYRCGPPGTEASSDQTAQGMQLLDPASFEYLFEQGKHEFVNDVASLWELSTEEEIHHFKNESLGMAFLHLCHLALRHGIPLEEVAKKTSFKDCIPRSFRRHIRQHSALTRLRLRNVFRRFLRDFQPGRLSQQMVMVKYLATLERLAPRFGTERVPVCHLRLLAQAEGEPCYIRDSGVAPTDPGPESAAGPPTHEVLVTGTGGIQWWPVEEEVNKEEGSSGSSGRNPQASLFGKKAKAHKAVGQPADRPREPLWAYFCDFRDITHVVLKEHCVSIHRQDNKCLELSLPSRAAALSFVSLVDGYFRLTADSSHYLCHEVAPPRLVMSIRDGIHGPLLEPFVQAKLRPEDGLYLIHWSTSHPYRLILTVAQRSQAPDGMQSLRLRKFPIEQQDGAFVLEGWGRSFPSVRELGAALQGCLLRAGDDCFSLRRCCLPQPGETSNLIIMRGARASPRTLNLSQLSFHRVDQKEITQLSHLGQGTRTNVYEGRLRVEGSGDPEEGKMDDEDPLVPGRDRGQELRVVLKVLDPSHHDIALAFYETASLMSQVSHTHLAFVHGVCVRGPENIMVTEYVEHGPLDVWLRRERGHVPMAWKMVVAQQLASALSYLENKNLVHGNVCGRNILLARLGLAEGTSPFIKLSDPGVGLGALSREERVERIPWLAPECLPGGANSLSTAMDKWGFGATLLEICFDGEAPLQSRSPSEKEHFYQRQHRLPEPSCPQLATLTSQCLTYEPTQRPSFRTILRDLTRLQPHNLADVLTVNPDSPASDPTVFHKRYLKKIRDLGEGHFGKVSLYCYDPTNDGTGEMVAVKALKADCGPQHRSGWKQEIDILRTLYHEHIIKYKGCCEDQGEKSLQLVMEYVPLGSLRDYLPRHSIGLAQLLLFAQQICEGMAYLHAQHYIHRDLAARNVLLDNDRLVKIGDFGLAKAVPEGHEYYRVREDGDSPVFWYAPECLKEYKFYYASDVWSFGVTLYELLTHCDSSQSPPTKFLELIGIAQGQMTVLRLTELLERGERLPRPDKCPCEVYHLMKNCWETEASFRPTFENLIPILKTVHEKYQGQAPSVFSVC

One may read the IC50 as the concentration that gives 50% inhibition. Consider `Cc1nnc(-c2n[nH]c3cc(-c4cc(F)c(O)cc4CC(F)(F)F)nc(NCc4ccccc4N(C)S(C)(=O)=O)c23)[nH]1`, for which the IC50 in test [1] stood at 129 nM; in test [2], 429 nM; in test [3], 27.5 nM; in test [4], 150 nM.
Regarding `CCc1cc(O)ccc1-c1cc2[nH]ncc2c(N2CC(Oc3ccccc3)C2)n1`, the IC50 in test [1] stood at 82.9 nM; in test [2], 67.5 nM; in test [3] it was 12.1 nM; in test [4], 5170 nM.
Taken in the same sequence, the figures for `CN(c1ccc(O)cc1CNc1nc(-c2cc(F)c(O)cc2CC(F)(F)F)nc2[nH]nc(C(N)=O)c12)S(C)(=O)=O` were 12.7 nM, 38 nM, 3.2 nM and 373 nM.
Taken in the same sequence, the figures for `CN(c1ccc(O)cc1CNc1nc(-c2cc(F)c(O)cc2CC(F)(F)F)nc2[nH]nc(-c3nc4c([nH]3)CCNC4)c12)S(C)(=O)=O` were 35.3 nM, 111 nM, 5.6 nM and 68.6 nM.
Turning to `CS(=O)(=O)N(CCO)c1ccccc1CNc1nc(-c2cc(F)c(O)cc2CC(F)(F)F)cc2[nH]nc(C(N)=O)c12`, the IC50 in test [1] was found to be 14.7 nM; in test [2], 53.5 nM; in test [3] it was 2.9 nM; in test [4], 48.8 nM.
The matching figures for `CN(c1ccccc1CNc1nc(-c2cc(F)c(O)cc2CC(F)(F)F)nc2[nH]nc(-c3nnc(C4CCN(C(=O)CN5CCCC5)CC4)[nH]3)c12)S(C)(=O)=O`: 54.3 nM, 158 nM, 16.8 nM and 2260 nM.
Taken in the same sequence, the figures for `CCc1cc(O)ccc1-c1cc2[nH]ncc2c(NCCc2ccc(-c3ccccc3)cc2)n1` were 183 nM, 157 nM, 87.6 nM and 4230 nM.
